What was measured:
Assay in all cases: NCI 60 cell panel SRB screen
[1] = tested on: CCRF-CEM; assay type: cell-based, human; details: Homo sapiens, single dose 10 μM, read-out: percent cell growth promotion
[2] = tested on: RPMI-8226; assay type: cell-based; details: Homo sapiens; RPMI-8226, single dose 10 μM; read-out: percent cell growth promotion
[3] = tested on: SR; assay type: cell-based; details: Homo sapiens, single dose 10 μM, read-out: percent cell growth promotion
[4] = tested on: A549/ATCC; assay type: cell-based; details: Homo sapiens, single dose 10 μM, read-out: percent cell growth promotion
[5] = tested on: HOP-92; assay type: cell-based; details: Homo sapiens; HOP-92, single dose 10 μM; read-out: percent cell growth promotion
[6] = tested on: NCI-H226; assay type: cell-based; details: Homo sapiens; NCI-H226, single dose 10 μM; read-out: percent cell growth promotion
[7] = tested on: NCI-H23; assay type: cell-based; details: Homo sapiens; NCI-H23, single dose 10 μM; read-out: percent cell growth promotion
[8] = tested on: NCI-H460; assay type: cell-based; details: Homo sapiens; NCI-H460, single dose 10 μM; read-out: percent cell growth promotion
[9] = tested on: HCC-2998; assay type: cell-based; details: Homo sapiens; HCC-2998, single dose 10 μM; read-out: percent cell growth promotion
[10] = tested on: HCT-116; assay type: cell-based; details: Homo sapiens; HCT-116, single dose 10 μM; read-out: percent cell growth promotion
[11] = tested on: KM12; assay type: cell-based; details: Homo sapiens; KM12, single dose 10 μM; read-out: percent cell growth promotion
[12] = tested on: SW-620; assay type: cell-based; details: Homo sapiens; SW-620, single dose 10 μM; read-out: percent cell growth promotion
[13] = tested on: SNB-19; assay type: cell-based; details: Homo sapiens; SNB-19, single dose 10 μM; read-out: percent cell growth promotion
[14] = tested on: SNB-75; assay type: cell-based; details: Homo sapiens; SNB-75, single dose 10 μM; read-out: percent cell growth promotion
[15] = tested on: U251; assay type: cell-based; details: Homo sapiens, U-251; U251, single dose 10 μM; read-out: percent cell growth promotion
[16] = tested on: MALME-3M; assay type: cell-based; details: Homo sapiens, Malme-3M, read-out: percent cell growth promotion
[17] = tested on: M14; assay type: cell-based; details: Homo sapiens, M14, read-out: percent cell growth promotion
[18] = tested on: SK-MEL-28; assay type: cell-based; details: Homo sapiens, SK-MEL-28, read-out: percent cell growth promotion
[19] = tested on: SK-MEL-5; assay type: cell-based; details: Homo sapiens, SK-MEL-5, read-out: percent cell growth promotion
[20] = tested on: OVCAR-5; assay type: cell-based; details: Homo sapiens; OVCAR-5, single dose 10 μM; read-out: percent cell growth promotion
[21] = tested on: OVCAR-8; assay type: cell-based; details: Homo sapiens; OVCAR-8, single dose 10 μM; read-out: percent cell growth promotion
[22] = tested on: NCI/ADR-RES; assay type: cell-based; details: Homo sapiens, single dose 10 μM, read-out: percent cell growth promotion
[23] = tested on: SK-OV-3; assay type: cell-based; details: Homo sapiens; SK-OV-3, single dose 10 μM; read-out: percent cell growth promotion
[24] = tested on: ACHN; assay type: cell-based; details: Homo sapiens, single dose 10 μM, read-out: percent cell growth promotion
[25] = tested on: RXF 393; assay type: cell-based; details: Homo sapiens; RXF 393, single dose 10 μM; read-out: percent cell growth promotion
[26] = tested on: SN12C; assay type: cell-based; details: Homo sapiens, single dose 10 μM, read-out: percent cell growth promotion
[27] = tested on: TK-10; assay type: cell-based, human; details: Homo sapiens; TK-10, single dose 10 μM; read-out: percent cell growth promotion

CCOC(=O)N1CCN(c2nncc3ccccc23)CC1 [Compound 8a, Ethyl 4-(phthalazin-1-yl)piperazine-1-carboxylate]
activity at 10 µM [1]: 96.9% | activity at 10 µM [2]: 101% | activity at 10 µM [3]: 102% | activity at 10 µM [4]: 99.6% | activity at 10 µM [5]: 104% | activity at 10 µM [6]: 100% | activity at 10 µM [7]: 105% | activity at 10 µM [8]: 105% | activity at 10 µM [9]: 117% | activity at 10 µM [10]: 99.1% | activity at 10 µM [11]: 104% | activity at 10 µM [12]: 102% | activity at 10 µM [13]: 103% | activity at 10 µM [14]: 104% | activity at 10 µM [15]: 99.3% | activity at 10 µM [16]: 109% | activity at 10 µM [17]: 110% | activity at 10 µM [18]: 116% | activity at 10 µM [19]: 103% | activity at 10 µM [20]: 128% | activity at 10 µM [21]: 97.7% | activity at 10 µM [22]: 102% | activity at 10 µM [23]: 105% | activity at 10 µM [24]: 115% | activity at 10 µM [25]: 102% | activity at 10 µM [26]: 110% | activity at 10 µM [27]: 110%

O=C(Nc1ccc(Nc2nncc3ccccc23)cc1)c1ccc(Cl)cc1 [Compound 5b, 4-Chloro-N-(4-(phthalazin-1-ylamino)phenyl)benzamide]
activity at 10 µM [1]: 103% | activity at 10 µM [2]: 104% | activity at 10 µM [3]: 95% | activity at 10 µM [4]: 101% | activity at 10 µM [5]: 97.5% | activity at 10 µM [6]: 77.9% | activity at 10 µM [7]: 98.5% | activity at 10 µM [8]: 101% | activity at 10 µM [9]: 113% | activity at 10 µM [10]: 100% | activity at 10 µM [11]: 103% | activity at 10 µM [12]: 102% | activity at 10 µM [13]: 104% | activity at 10 µM [14]: 98.1% | activity at 10 µM [15]: 99.5% | activity at 10 µM [16]: 99.6% | activity at 10 µM [17]: 99.7% | activity at 10 µM [18]: 114% | activity at 10 µM [19]: 99.8% | activity at 10 µM [21]: 96.2% | activity at 10 µM [22]: 103% | activity at 10 µM [23]: 87.3% | activity at 10 µM [24]: 112% | activity at 10 µM [25]: 115% | activity at 10 µM [26]: 100% | activity at 10 µM [27]: 116%
